From patent US20220326244A1, “METHODS FOR DIAGNOSIS, PROGNOSIS, AND TREATMENT OF CANCER” (The Boardof Trustees of the Leland Stanford Junort …, priority 2019, published 2022)

Experiments:
NK-92 cells = test: PMA-stimulated degranulation and intracellular cytokine production of NK-92 cells (CyTOF); assay type: cell-based, human; conditions: mono- and coculture; PMA 4 h exposure
From the text: Intracellular cytokine production of CD9+ and CD9− NK-92 cells. One of the mechanisms by which dNK cells exert immune tolerance is through poor cytotoxic responses and secretion of a specific set of cytokines. Thus, we hypothesized that trogocytosis and the acquisition of CD9 by NK-92 cells endows them with features of immune tolerance. Therefore, we measured the intracellular expression levels of cytolytic proteins (perforin and granzyme B), anti-tumor cytokines ([…], TNFα, GM-CSF, IFNγ), the proangiogenic cytokine IL-8, the immunosuppressive cytokine IL-10, and CD107a, a marker for degranulation in both CD9+ and CD9− NK-92 cells after coculture with HGSC cells lines. Specifically, we measured NK-92 cell function before and after coculture in response to phorbol-12-myristate-13-acetate (PMA). Exposing cocultures to PMA circumvents upstream NK receptor signaling and is a convenient method for measuring NK cell function. In a pilot study, we determined that a coculture time of 6 h produced the most robust intracellular cytokine production (ICP). Therefore, NK-92 and HGSC cell lines were cocultured for 6 h in the presence of PMA (4 h exposure) with brefeldin A and monensin added to block secretion (Materials and Methods). For all experiments, we used two positive controls. […]

Kuramochi (EV) cell line = test: Carboplatin exposure of HGSC cell line, CyTOF with tumor NK receptor ligand/ADAM antibody panel; assay type: cell-based; conditions: for frequency of cells expressing nectin 4: baseline 15%
Experimental: (§1) FIG. 4. Responses to carboplatin across E, EV and V HGSC cell lines. OVCAR4 (E), Kuramochi (EV) and TYK-nu (V) cell lines exposed to vehicle or carboplatin at 0.5 or 1 μg/ml for 1 week were processed for CyTOF with the tumor NK receptor ligand/ADAM antibody panel. The parent population is defined as viable single cells negative for cisplatin and cPARP. The plots show frequencies of HGSC cells expressing activating and inhibitor NK receptor ligands (X-axis) gated out of the parent population (Y-axis). Plots show the mean of triplicates with standard deviations. p-values: *≤0.05, **≤0.005, for overall ANOVA.
(§2) Changes in NK receptor ligand expression levels in response to carboplatin. It is well established that activation of the DNA damage response with genotoxic agents increases the expression of ligands for NKG2D and DNAM1 thereby making a “stressed” cell more susceptible to NK cell killing. We therefore exposed the three HGSC cell lines to carboplatin, a genotoxic agent that is part of the standard-of-care regimen for women with HGSC. After one week, the HGSC cell lines were processed for CyTOF using the tumor/NK receptor ligand antibody panel (Table 12).
(§3) Sample Processing and Antibody Staining for CyTOF. Frozen, fixed single-cell suspensions of HGSC tumors or cell lines were thawed at room temperature. For each sample, 1×10^6 cells were aliquoted into cluster tubes in 96 well plates and subjected to pre-permeabilization palladium barcoding. After barcoding, pooled cells were pelleted and incubated for 10 min at room temperature with FcX block (Biolegend) to block non-specific antibody binding. Cells were then incubated with antibodies against surface markers for 45 min at room temperature. Cells were permeabilized at 4° C. with methanol or 1× Permeabilization Buffer (eBioscience) (only for the CyTOF antibody panel designed to characterize intracellular cytokines, on ice for 10 min. Cells were subsequently stained with antibodies against intracellular markers for 1 h at room temperature, washed, and incubated with the ^191/193Ir DNA intercalator (Fluidigm) at 4° C. overnight. Cells were washed and resuspended in a solution of normalization beads before introduction into the CyTOF 2.

OVCAR4 (E) cell line = test: as above; assay type: cell-based; conditions: for frequency of cells expressing nectin 4: OVCAR4, 1 week
Experimental: as §1, §2, §3

TYK-nu (V) cell line = test: as above; assay type: cell-based; conditions: for frequency of cells expressing nectin 4: baseline 6%
Experimental: as §1, §2, §3

[1] = tested on: HGSC cell lines (OVCAR4, Kuramochi, TYK-nu); test: Carboplatin exposure of the three HGSC cell lines, CyTOF (stated for all lines together); assay type: cell-based
Experimental: as §1, §2
Sample Processing and Antibody Staining for CyTOF. Frozen, fixed single-cell suspensions of HGSC tumors or cell lines were thawed at room temperature. […]

[2] = tested on: NK-92 cells cocultured with OVCAR4, Kuramochi and TYK-nu HGSC tumor cell lines; test: Trogocytosis inhibition: CD9 acquisition by NK-92 cells in coculture with HGSC cell lines; assay type: cell-based, human
Experimental: To further confirm that the mechanism of CD9 acquisition by NK-92 cells was through trogocytosis we performed an additional series of experiments. Many studies have shown that inhibitors of actin polymerization block trogocytosis but that the effect of these inhibitors vary depending on the cell type.
(§4) Trogocytosis inhibition. NK-92 cells were pre-treated with cytochalasin D (10 μM in complete media) for 2 h. They were then co-cultured with cancer cell lines as indicated in a ratio of 1:1 in the continuous presence of cytochalasin D for a further 2 h after which cells were stained with antibodies against CD9, CD45 and processed prior to CyTOF analysis as described above.

[3] = tested on: NK-92 cells cocultured with non-HGSC tumor cell lines; test: Trogocytosis inhibition: CD9 uptake by NK-92 cells in coculture with non-HGSC cell lines; assay type: cell-based, human
From the text: Evaluation of NK-92 trogocyctosis from non-HGSC cell lines. In order to determine whether NK-92 CD9 trogocytosis was a feature of non-HGSC tumor cells, we established the frequency of CD9-expressing cells in 15 non-HGSC as well as 11 HGSC tumor cell lines (FIG. 6A). The frequency and levels of CD9-expressing tumor cells varied across the cell lines and are presented going from highest to lowest CD9 levels (FIGS. 6A and B). […] We therefore chose three non-HGSC tumor cell lines with high CD9 expression (HCT116, A431 and MCF7) and three with lower CD9 expression (HeLa, CaCo-2 and HepG2) for trogocytosis experiments (FIG. 6B). NK-92 trogocytosis from non-HGSC cell lines was highly varied, not correlated to CD9 levels and, aside from the HCT116 colorectal cancer cell line, less pronounced than from the HGSC cell lines (FIGS. 5C and 6C).
as §4

CCCCCCCCCCCCCC(=O)O[C@@H]1[C@@H](C)[C@@]2(O)[C@@H](C=C(CO)C[C@]3(O)C(=O)C(C)=C[C@@H]23)[C@@H]2C(C)(C)[C@]12OC(C)=O [PMA, phorbol-12-myristate-13-acetate]
NK-92 cell degranulation (CD107a) and production of MIP1a (NK-92 cells): robust responses

N.N.O=C([O-])C1(C(=O)[O-])CCC1.[Pt+2] [carboplatin]
frequency of cells expressing HLA-E (Kuramochi (EV) cell line; Kuramochi, after carboplatin 1 week): significant increases | frequency of cells expressing nectin 4 (Kuramochi (EV) cell line; Kuramochi, first listed of two carboplatin doses): 22% | frequency of cells expressing nectin 4 (Kuramochi (EV) cell line; Kuramochi, second listed of two carboplatin doses): 23% | frequency of Kuramochi cells expressing HLA-ABC (Kuramochi (EV) cell line; after carboplatin 1 week): significant increase | frequency of cells expressing HLA-E (OVCAR4 (E) cell line; OVCAR4, after carboplatin 1 week): significant increases | frequency of cells expressing nectin 4 (OVCAR4 (E) cell line; first listed of two carboplatin doses (0.5 or 1 μg/ml), baseline 24%): 39% | frequency of cells expressing nectin 4 (OVCAR4 (E) cell line; second listed of two carboplatin doses (0.5 or 1 μg/ml), baseline 24%): 45% | frequency of OVCAR4 cells expressing ULBP2 (OVCAR4 (E) cell line; after carboplatin (0.5 or 1 μg/ml, 1 week), baseline 24%): 50% | frequency of cells expressing HLA-E (TYK-nu (V) cell line; TYK-nu, after carboplatin 1 week): significant increases | frequency of cells expressing nectin 4 (TYK-nu (V) cell line; TYK-nu, first listed of two carboplatin doses): 9% | frequency of cells expressing nectin 4 (TYK-nu (V) cell line; TYK-nu, second listed of two carboplatin doses): 9% | CD111 in TYK-nu cells (TYK-nu (V) cell line; after carboplatin 1 week): significant increase | proportion of HGSC tumor cells that expressed NK inhibitory receptor ligands ([1]; all three cell lines, after carboplatin): increased | DNA damage response: pH2AX ([1]; carboplatin 0.5 or 1 μg/ml for 1 week): increase

C=C1[C@@H](C)[C@H]2[C@H](Cc3ccccc3)NC(=O)[C@]23[C@H](OC(C)=O)/C=C/[C@@](C)(O)C(=O)[C@@H](C)C/C=C/[C@H]3[C@@H]1O [cytochalasin D]
reduction of CD9+ NK-92 cells ([2]; NK-92 pre-incubated 2 h with cytochalasin D, coculture in its presence with OVCAR4, Kuramochi and TYK-nu): 40-69% | inhibition of trogocytosis (HGSC cell line coculture) ([2]; pre-incubation of NK-92 cells with cytochalasin D (10 μM)): partial inhibition | CD9 uptake in NK-92 ([3]; non-HGSC cell lines, most marked for HCT116, MCF7 and CaCo2): partially inhibited | inhibition of trogocytosis (non-HGSC cell coculture) ([3]; preincubation of NK-92 cells with cytochalasin D (10 μM)): partial inhibition
